What all share (type): biochemical
The test system of experiment [1] is α-chymotrypsin (CT), silica encapsulated single-enzyme nanoparticles SEEN-CT (Example 1). As to the kind of experiment: Kinetic constants by hydrolysis of MUTMAC, silica encapsulated single-enzyme nanoparticles SEEN-CT (Example 1). The protocol: Silica encapsulated single-enzyme nanoparticles were prepared using α-chymotrypsin (CT) as schematically described in FIG. 1. Specifically, the synthesis of the silica encapsulated single-enzyme nanoparticles began with dissolution of the enzyme in an aqueous solution with an organic solvent. CT was dissolved in a 10 mM Bis-Tris propane (pH 7.8) buffer containing 1% isopropanol and 2 mM calcium chloride to a concentration of 1 mg/mL. Subsequently, 2 mM AOT added to hexane of the same volume was mixed with the enzyme solution. After stirring at room temperature for 15 minutes, phase separation was conducted through centrifugation. Only the hexane layer containing the solubilized enzyme was separated and then hexane was evaporated using nitrogen gas to adjust the concentration to 1 mg/mL.
Next, a mixture solution of TMOS:hexane (1:1) was added to the enzyme-containing hexane solution with a volume of 1% thereof and stored at 4° C. for 17 hours.
Then, after storing for 1.5 hours at room temperature and adding a 200 mM sodium phosphate buffer (pH 7.8) corresponding to 2 times the volume of the hexane, the mixture was stirred at 250 rpm for 10 minutes. After phase separation occurred through centrifugation, only the aqueous solution layer was separated. Then, impurities were filtered off through a 100-nm filter.
Subsequently, the enzyme extracted into the aqueous solution phase was stored at 4° C. for 3 days. After the 3 days, unreacted TMOS and AOT molecules were removed while replacing with a 10 mM sodium phosphate buffer using an ultrafiltration device. The as-synthesized silica encapsulated single-enzyme nanoparticles were stored at 4° C. until use.
(§1) The kinetic constants of SEEN-CT (Example 1), RM-SEEN-CT (Comparative Example 1) and free enzyme (free CT) were measured by hydrolysis of MUTMAC. The values were obtained by nonlinear regression based on the least square method.

Experiment [2] relates to α-chymotrypsin (CT), free enzyme (free CT). As to the kind of experiment: Kinetic constants by hydrolysis of MUTMAC, free enzyme (Free-CT). The method, then: as §1
The test system of experiment [3] is α-chymotrypsin (CT), reverse micelle-silica encapsulated single-enzyme nanoparticles RM-SEEN-CT (Comparative Example 1). The experiment is described as follows: Kinetic constants by hydrolysis of MUTMAC, reverse micelle-silica encapsulated RM-SEEN-CT (Comparative Example 1). The method, then:
Hexane containing 100 mM AOT as surfactant, and a small amount of a 10 mM Bis-Tris propane buffer containing enzymes were added. The amount of the added aqueous solution was adjusted such that its molar concentration was 20 times that of AOT. Then, the enzymes were solubilized to hexane by stirring for 10 minutes. The procedure following the solubilization of the enzymes in hexane was similar to Example 1.
In the reverse micelle method, which was employed for comparison with the method for manufacturing silica encapsulated single-enzyme nanoparticles according to the present disclosure, condensation of the silica precursor proceeds faster because more water molecules are present around the enzyme. As a result, a thicker silica network will be formed and the Michaelis-Menten constant may increase.
as §1

Setting [4] is: SEEN-CT, hydrolysis of MUTMAC, nonlinear regression, least square method.
Setting [5] is: nonlinear regression, least square method.
The mark [6] stands for this setting: RM-SEEN-CT, hydrolysis of MUTMAC, nonlinear regression, least square method.

Turning to `Cc1cc(=O)oc2cc(OC(=O)/C=C/c3ccc([N+](C)(C)C)cc3)ccc12` [MUTMAC], the “decrease of catalytic efficiency, kcat/Km, as compared to free CT” value in experiment [1] (SEEN-CT as compared to free CT) is 21%; in experiment [3] (RM-SEEN-CT as compared to free CT) it was “about 48%”. In addition, the kcat/Km in experiment [1] (SEEN-CT, hydrolysis of MUTMAC) is listed as 6.0 ± 0.1 × 10^5M^−1s^−1; in experiment [2], 7.6 ± 0.2 × 10^5M^−1s^−1; in experiment [3] (RM-SEEN-CT, hydrolysis of MUTMAC) it was 3.9 ± 0.1 × 10^5M^−1s^−1. Besides, the Km came to 42.4 ± 0.1 µM in experiment [1] (setting [4]), 41.8 ± 0.1 µM in experiment [2] (setting [5]) and 76.8 ± 3.6 µM in experiment [3] (setting [6]). The kcat came to 25.4 ± 0.1 s⁻¹ in experiment [1] (setting [4]), 31.8 ± 0.8 s⁻¹ in experiment [2] (setting [5]) and 30.3 ± 0.8 s⁻¹ in experiment [3] (setting [6]).
